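Method: 48-hour compound exposure of cells in 96-well plates, five concentrations, linear interpolation of endpoints. The concentration for 50% growth inhibition is given as GI50. TGI denotes the concentration required for complete inhibition of growth.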
Experiments:
Experiment in all cases: inhibition of tumour cell growth, NCI panel, 48 h
BT-549 breast = tested on: BT-549 breast
NCI-H226 lung = tested on: NCI-H226 lung
NCI-H23 lung = tested on: NCI-H23 lung
UACC-257 melanoma = tested on: UACC-257 melanoma
KM12 colon = tested on: KM12 colon
MCF7 breast = tested on: MCF7 breast
T-47D breast = tested on: T-47D breast
MOLT-4 leukemia = tested on: MOLT-4 leukemia
CAKI-1 renal = tested on: CAKI-1 renal
SK-OV-3 ovarian = tested on: SK-OV-3 ovarian
NCI/ADR-RES ovarian = tested on: NCI/ADR-RES ovarian
CCRF-CEM leukemia = tested on: CCRF-CEM leukemia
OVCAR-4 ovarian = tested on: OVCAR-4 ovarian
HOP-62 NSCLC = tested on: HOP-62 NSCLC
K-562 leukemia = tested on: K-562 leukemia
EKVX NSCLC = tested on: EKVX NSCLC
SNB-19 CNS = tested on: SNB-19 CNS
NCI-H460 lung = tested on: NCI-H460 lung
MDA-MB-231 breast = tested on: MDA-MB-231 breast
OVCAR-5 ovarian = tested on: OVCAR-5 ovarian
SW-620 colon = tested on: SW-620 colon
ACHN renal = tested on: ACHN renal
M14 melanoma = tested on: M14 melanoma
UACC-62 melanoma = tested on: UACC-62 melanoma
PC-3 prostate = tested on: PC-3 prostate
MALME-3M melanoma = tested on: MALME-3M melanoma
UO-31 renal = tested on: UO-31 renal
NCI-H522 lung = tested on: NCI-H522 lung
COLO 205 colon = tested on: COLO 205 colon
RPMI-8226 leukemia = tested on: RPMI-8226 leukemia
HT29 colon = tested on: HT29 colon
SF-539 CNS = tested on: SF-539 CNS
SR leukemia = tested on: SR leukemia
LOX IMVI melanoma = tested on: LOX IMVI melanoma
RXF 393 renal = tested on: RXF 393 renal
U251 CNS = tested on: U251 CNS
MDA-MB-435 = tested on: MDA-MB-435
A498 renal = tested on: A498 renal
SK-MEL-28 melanoma = tested on: SK-MEL-28 melanoma
HCT-15 colon = tested on: HCT-15 colon
SF-295 CNS = tested on: SF-295 CNS
SF-268 CNS = tested on: SF-268 CNS
SK-MEL-2 melanoma = tested on: SK-MEL-2 melanoma
IGROV1 ovarian = tested on: IGROV1 ovarian
TK-10 renal = tested on: TK-10 renal
OVCAR-3 ovarian = tested on: OVCAR-3 ovarian
SN12C renal = tested on: SN12C renal
HCT-116 colon = tested on: HCT-116 colon
HOP-92 NSCLC = tested on: HOP-92 NSCLC
OVCAR-8 ovarian = tested on: OVCAR-8 ovarian
A549 NSCLC = tested on: A549 NSCLC
SNB-75 CNS = tested on: SNB-75 CNS
SK-MEL-5 melanoma = tested on: SK-MEL-5 melanoma
786-0 renal = tested on: 786-0 renal
DU-145 prostate = tested on: DU-145 prostate
HCC-2998 colon = tested on: HCC-2998 colon
HS 578T breast = tested on: HS 578T breast
HL-60(TB) leukemia = tested on: HL-60(TB) leukemia

C/C=C1\NC(=O)[C@H](Cc2ccccc2)NC(=O)[C@@H](C(C)C)NC(=O)[C@@H]([C@@H](C)CC)NC(=O)[C@H](NC(=O)[C@H](NC(=O)[C@H](CCCN)NC(=O)[C@H]2CCCN2C(=O)[C@H](NC(=O)[C@@H](NC(=O)[C@@H](NC(=O)[C@H](NC(=O)CCCC(C)C)C(C)C)[C@@H](C)O)C(C)C)C(C)C)[C@@H](C)CC)[C@@H](C)OC(=O)[C@H](C(C)C)NC1=O
TGI (BT-549 breast): 12 µM
TGI (NCI-H226 lung): 4.24 µM
TGI (NCI-H23 lung): 15.2 µM
GI50 (UACC-257 melanoma): 1.02 µM
TGI (UACC-257 melanoma): 2.84 µM

Cn1nc(/C=C\C(=O)N2CC(CCl)c3c2cc(N)c2ccccc32)cc1/C=C/C(=O)N1CC(CCl)c2c1cc(N)c1ccccc21 (configuration not stated)
TGI (KM12 colon): > 100 µM
TGI (MCF7 breast): > 100 µM
TGI (T-47D breast): > 100 µM
TGI (MOLT-4 leukemia): > 100 µM
TGI (BT-549 breast): < 0.01 µM
TGI (CAKI-1 renal): < 0.01 µM
TGI (SK-OV-3 ovarian): > 100 µM
TGI (NCI-H226 lung): < 0.01 µM
TGI (NCI/ADR-RES ovarian): 0.295 µM
TGI (CCRF-CEM leukemia): < 0.01 µM
TGI (OVCAR-4 ovarian): > 100 µM
TGI (HOP-62 NSCLC): 0.0411 µM
TGI (K-562 leukemia): > 100 µM
TGI (EKVX NSCLC): 0.0965 µM
TGI (SNB-19 CNS): 0.591 µM
TGI (NCI-H460 lung): > 100 µM
TGI (MDA-MB-231 breast): < 0.01 µM
TGI (OVCAR-5 ovarian): < 0.01 µM
TGI (SW-620 colon): > 100 µM
TGI (ACHN renal): > 100 µM
TGI (M14 melanoma): < 0.01 µM
TGI (UACC-62 melanoma): < 0.01 µM
TGI (PC-3 prostate): 0.0596 µM

CC(=O)Nc1ccc(Sc2ccc([N+](=O)[O-])o2)cc1
GI50 (MALME-3M melanoma): 2.09 µM
TGI (MALME-3M melanoma): 4.77 µM
GI50 (KM12 colon): 2.84 µM
TGI (KM12 colon): 9.08 µM
GI50 (MCF7 breast): 1.88 µM
TGI (MCF7 breast): 6.92 µM
GI50 (UO-31 renal): 3.9 µM
TGI (UO-31 renal): 13 µM
GI50 (NCI-H522 lung): 0.214 µM
TGI (NCI-H522 lung): 0.711 µM
GI50 (COLO 205 colon): 0.651 µM
TGI (COLO 205 colon): 1.82 µM
GI50 (RPMI-8226 leukemia): 2.13 µM
TGI (RPMI-8226 leukemia): 8.65 µM
GI50 (HT29 colon): 1.56 µM
TGI (HT29 colon): 3.25 µM
GI50 (SF-539 CNS): 3.13 µM
TGI (SF-539 CNS): 11 µM
GI50 (SR leukemia): 2.8 µM
TGI (SR leukemia): 12.6 µM
GI50 (MOLT-4 leukemia): 2.14 µM
TGI (MOLT-4 leukemia): 6.42 µM
GI50 (BT-549 breast): 5.22 µM
TGI (BT-549 breast): 10.6 µM
GI50 (CAKI-1 renal): 1.41 µM
TGI (CAKI-1 renal): 3.06 µM
GI50 (LOX IMVI melanoma): 1.45 µM
TGI (LOX IMVI melanoma): 3.05 µM
GI50 (SK-OV-3 ovarian): 8.37 µM
TGI (SK-OV-3 ovarian): 20.6 µM
GI50 (NCI-H226 lung): 2.88 µM
TGI (NCI-H226 lung): 8.7 µM
GI50 (NCI-H23 lung): 2.99 µM
TGI (NCI-H23 lung): 10.2 µM
GI50 (RXF 393 renal): 0.929 µM
TGI (RXF 393 renal): 3.46 µM
GI50 (U251 CNS): 3.06 µM
TGI (U251 CNS): 11 µM
GI50 (NCI/ADR-RES ovarian): 2.88 µM
TGI (NCI/ADR-RES ovarian): 11.3 µM
GI50 (MDA-MB-435): 1.7 µM
TGI (MDA-MB-435): 3.44 µM
GI50 (A498 renal): 12.2 µM
TGI (A498 renal): 25 µM
GI50 (SK-MEL-28 melanoma): 1.75 µM
TGI (SK-MEL-28 melanoma): 3.6 µM
GI50 (HCT-15 colon): 0.806 µM
TGI (HCT-15 colon): 3.18 µM
GI50 (CCRF-CEM leukemia): 0.886 µM
TGI (CCRF-CEM leukemia): 3.93 µM
GI50 (OVCAR-4 ovarian): 2.27 µM
TGI (OVCAR-4 ovarian): 5.1 µM
GI50 (SF-295 CNS): 10.4 µM
TGI (SF-295 CNS): 23.5 µM
GI50 (SF-268 CNS): 3.16 µM
TGI (SF-268 CNS): 11.8 µM
GI50 (SK-MEL-2 melanoma): 2.31 µM
TGI (SK-MEL-2 melanoma): 6.29 µM
GI50 (IGROV1 ovarian): 1.27 µM
TGI (IGROV1 ovarian): 4.27 µM
GI50 (TK-10 renal): 2.13 µM
TGI (TK-10 renal): 5.99 µM
GI50 (OVCAR-3 ovarian): 0.664 µM
TGI (OVCAR-3 ovarian): 1.95 µM
GI50 (HOP-62 NSCLC): 3.37 µM
TGI (HOP-62 NSCLC): 10.5 µM
GI50 (SN12C renal): 2.96 µM
TGI (SN12C renal): 10.7 µM
GI50 (HCT-116 colon): 0.924 µM
TGI (HCT-116 colon): 2.75 µM
GI50 (K-562 leukemia): 2.22 µM
TGI (K-562 leukemia): > 30.8 µM
GI50 (EKVX NSCLC): 4.46 µM
TGI (EKVX NSCLC): 25.2 µM
GI50 (SNB-19 CNS): 10.1 µM
TGI (SNB-19 CNS): 23.2 µM
GI50 (NCI-H460 lung): 2.83 µM
TGI (NCI-H460 lung): 8.93 µM
GI50 (UACC-257 melanoma): 1.61 µM
TGI (UACC-257 melanoma): 3.52 µM
GI50 (HOP-92 NSCLC): 1.76 µM
TGI (HOP-92 NSCLC): 3.55 µM
GI50 (OVCAR-8 ovarian): 3.06 µM
TGI (OVCAR-8 ovarian): 13.4 µM
GI50 (MDA-MB-231 breast): 2.18 µM
TGI (MDA-MB-231 breast): 4.95 µM
GI50 (A549 NSCLC): 6.37 µM
TGI (A549 NSCLC): 23.3 µM
GI50 (OVCAR-5 ovarian): 2.34 µM
TGI (OVCAR-5 ovarian): 5.9 µM
GI50 (SW-620 colon): 0.767 µM
TGI (SW-620 colon): 2.22 µM
GI50 (SNB-75 CNS): 2.78 µM
TGI (SNB-75 CNS): 12.8 µM
GI50 (ACHN renal): 1.62 µM
TGI (ACHN renal): 4.29 µM
GI50 (M14 melanoma): 2.08 µM
TGI (M14 melanoma): 4.09 µM
GI50 (UACC-62 melanoma): 1.83 µM
TGI (UACC-62 melanoma): 3.84 µM
GI50 (SK-MEL-5 melanoma): 3.32 µM
TGI (SK-MEL-5 melanoma): 11.4 µM
GI50 (PC-3 prostate): 2.23 µM
TGI (PC-3 prostate): 6.58 µM
GI50 (786-0 renal): 2.69 µM
TGI (786-0 renal): 7.55 µM
GI50 (DU-145 prostate): 2.26 µM
TGI (DU-145 prostate): 5.98 µM
GI50 (HCC-2998 colon): 1.9 µM
TGI (HCC-2998 colon): 3.52 µM
GI50 (HS 578T breast): 3.87 µM
TGI (HS 578T breast): 24.9 µM
GI50 (HL-60(TB) leukemia): 1.29 µM
TGI (HL-60(TB) leukemia): 3.79 µM

— PubChem BioAssay (NCI)
